Experimental data published in ChEMBL document CHEMBL2073936, “A novel human hepatic organic anion transporting polypeptide (OATP2). Identification of a liver-specific human organic anion transporting polypeptide and identification of rat and human hydroxymethylglutaryl-CoA reductase inhibitor transporters” (J Biol Chem, 1999).

Experiments:
Assay type in all cases: functional, cell-based
[1] = molecular target: T1, Solute carrier organic anion transporter family member 1A1 (Rattus norvegicus, UniProt P46720); assay: TP_TRANSPORTER: inhibition of Taurocholate uptake (Taurocholate: 0.5 uM, Pravastatin: 50 uM) in Oatp1-expressing 293c18 cells; details: human, hek293-ebna
T1 sequence (P46720 whole entry): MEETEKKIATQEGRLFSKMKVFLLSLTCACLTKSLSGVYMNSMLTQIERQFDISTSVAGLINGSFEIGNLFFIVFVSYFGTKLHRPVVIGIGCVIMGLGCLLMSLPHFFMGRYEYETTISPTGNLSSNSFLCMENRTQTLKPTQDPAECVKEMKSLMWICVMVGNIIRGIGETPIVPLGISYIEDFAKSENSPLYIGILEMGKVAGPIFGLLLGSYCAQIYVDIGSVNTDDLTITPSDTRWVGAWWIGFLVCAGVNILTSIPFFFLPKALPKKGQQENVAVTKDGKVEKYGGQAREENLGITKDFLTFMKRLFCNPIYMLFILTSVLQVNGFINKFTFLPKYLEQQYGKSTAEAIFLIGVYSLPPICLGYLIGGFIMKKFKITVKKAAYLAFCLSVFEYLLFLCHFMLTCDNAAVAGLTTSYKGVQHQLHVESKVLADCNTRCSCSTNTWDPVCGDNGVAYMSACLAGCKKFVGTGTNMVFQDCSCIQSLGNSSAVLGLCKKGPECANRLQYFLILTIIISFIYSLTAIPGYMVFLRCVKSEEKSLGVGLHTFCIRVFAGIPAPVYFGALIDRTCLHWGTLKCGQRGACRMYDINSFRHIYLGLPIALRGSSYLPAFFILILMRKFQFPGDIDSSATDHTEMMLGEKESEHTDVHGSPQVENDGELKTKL

[2] = molecular target: T2, Solute carrier organic anion transporter family member 1A2 (Homo sapiens, UniProt P46721); assay: TP_TRANSPORTER: uptake in OATP-A-expressing 293c18 cell; details: hek293-ebna
T2 sequence (P46721 whole entry): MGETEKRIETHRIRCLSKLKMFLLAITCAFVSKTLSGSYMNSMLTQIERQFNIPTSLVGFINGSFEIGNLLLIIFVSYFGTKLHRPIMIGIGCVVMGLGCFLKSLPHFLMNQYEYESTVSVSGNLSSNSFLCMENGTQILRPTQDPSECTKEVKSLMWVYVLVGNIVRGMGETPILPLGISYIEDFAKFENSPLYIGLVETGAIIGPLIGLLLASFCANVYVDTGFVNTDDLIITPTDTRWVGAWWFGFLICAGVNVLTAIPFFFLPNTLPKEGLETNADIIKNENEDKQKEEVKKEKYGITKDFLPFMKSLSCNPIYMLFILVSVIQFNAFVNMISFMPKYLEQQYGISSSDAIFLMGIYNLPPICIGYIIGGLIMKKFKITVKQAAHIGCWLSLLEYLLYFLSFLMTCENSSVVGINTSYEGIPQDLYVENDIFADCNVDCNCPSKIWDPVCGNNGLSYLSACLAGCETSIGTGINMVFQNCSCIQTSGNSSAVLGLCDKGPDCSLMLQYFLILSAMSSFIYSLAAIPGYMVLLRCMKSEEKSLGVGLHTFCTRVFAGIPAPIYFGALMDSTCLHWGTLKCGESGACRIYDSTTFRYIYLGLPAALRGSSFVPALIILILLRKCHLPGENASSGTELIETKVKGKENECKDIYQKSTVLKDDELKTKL

[3] = molecular target: T3, Solute carrier organic anion transporter family member 1A4 (Rattus norvegicus, UniProt O35913); assay: TP_TRANSPORTER: uptake in Oatp2-expressing 293c18 cells; details: human, hek293-ebna
T3 sequence (O35913 whole entry): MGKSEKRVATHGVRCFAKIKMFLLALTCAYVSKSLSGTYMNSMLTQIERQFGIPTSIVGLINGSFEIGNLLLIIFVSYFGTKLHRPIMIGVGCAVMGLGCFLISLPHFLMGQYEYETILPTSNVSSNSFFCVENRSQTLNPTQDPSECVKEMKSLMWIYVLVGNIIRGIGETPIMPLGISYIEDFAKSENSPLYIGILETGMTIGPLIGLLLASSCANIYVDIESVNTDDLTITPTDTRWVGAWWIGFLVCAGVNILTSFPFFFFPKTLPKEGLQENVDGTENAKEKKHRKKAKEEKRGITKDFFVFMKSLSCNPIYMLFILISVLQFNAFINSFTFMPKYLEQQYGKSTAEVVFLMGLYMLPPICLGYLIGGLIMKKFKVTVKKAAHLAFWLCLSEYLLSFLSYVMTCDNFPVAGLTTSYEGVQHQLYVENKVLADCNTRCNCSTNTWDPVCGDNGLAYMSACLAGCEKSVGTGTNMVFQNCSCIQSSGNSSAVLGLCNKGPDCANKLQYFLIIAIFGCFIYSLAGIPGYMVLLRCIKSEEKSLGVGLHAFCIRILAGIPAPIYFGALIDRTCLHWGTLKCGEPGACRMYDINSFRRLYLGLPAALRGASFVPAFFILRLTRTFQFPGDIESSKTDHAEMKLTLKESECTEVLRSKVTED

With `CC[C@H](C)C(=O)O[C@H]1C[C@H](O)C=C2C=C[C@H](C)[C@H](CC[C@@H](O)C[C@@H](O)CC(=O)O)[C@H]21` [PRAVASTATIN] the Activity [1] was “inhibitor [+]”, the Activity [2] was “is not a substrate [-]” and the Activity [3] was “is not a substrate [-]”.
